Laboratory results: US20190327974A1, “SYNERGISTS FOR IMPROVED PESTICIDES” (priority 2017, published 2019)

Assays:
[1] = Observation of the spray mixtures (flocculation); assay type: physicochemical; conditions: alone and in mixture with CPE in all doses
[2] = target: Lucilia cuprina αE7 carboxylesterase (LcαE7) variant Gly137Asp (Lucilia cuprina, UniProt Q25252, G137D); assay: Inhibition of Gly137Asp LcαE7, 4-nitrophenol butyrate hydrolysis; assay type: biochemical
From the text: The term “carboxyethylesterase” (CBE), refers to insect carboxylesterases from the alpha and beta and non-microsomal gene clusters, as defined in Oakeshott, Claudianos, Campbell, Newcomb and Russell, “Biochemical Genetic and Genomics of Insect Esterases”, pp 309-381, Chapter 10, Volume 5, 2005, Eds. Gilbert, Iatrou, Gill, published—Elsevier which is incorporated herein by reference. The αE7 CBE is an example of an alpha esterase, and is found in the sheep blowfly, Lucilia cuprina, with homologous genes being present in other insect pests. […]
His6-tagged proteins were expressed in BL21(DE3) E. coli (Invitrogen) at 26° C. for 18 hours. […] Protein concentration was determined by measuring the absorbance at 280 nm with an extinction coefficient calculated using the Protparam online server (Gasteiger, E. et al. Protein identification and analysis tools on the ExPASy server. Proteomics Protoc. Handb. 571-607 (2005). doi:10.1385/1-59259-890-0:571).
Inhibition of wild-type αE7 and the Gly137Asp αE7 variant was determined by a competition assay between the native-substrate analogue 4-nitrophenol butyrate (Sigma) and the boronic acid compounds. Initially, the Michalis constant (KM) with 4-nitrophenol butyrate was measured for both enzymes to determine an appropriate concentration of substrate for use in the competition assays. […]

Lucilia cuprina αE7 carboxylesterase (LcαE7) variant Gly137Asp, sequence (Q25252 entry or part of it G137D): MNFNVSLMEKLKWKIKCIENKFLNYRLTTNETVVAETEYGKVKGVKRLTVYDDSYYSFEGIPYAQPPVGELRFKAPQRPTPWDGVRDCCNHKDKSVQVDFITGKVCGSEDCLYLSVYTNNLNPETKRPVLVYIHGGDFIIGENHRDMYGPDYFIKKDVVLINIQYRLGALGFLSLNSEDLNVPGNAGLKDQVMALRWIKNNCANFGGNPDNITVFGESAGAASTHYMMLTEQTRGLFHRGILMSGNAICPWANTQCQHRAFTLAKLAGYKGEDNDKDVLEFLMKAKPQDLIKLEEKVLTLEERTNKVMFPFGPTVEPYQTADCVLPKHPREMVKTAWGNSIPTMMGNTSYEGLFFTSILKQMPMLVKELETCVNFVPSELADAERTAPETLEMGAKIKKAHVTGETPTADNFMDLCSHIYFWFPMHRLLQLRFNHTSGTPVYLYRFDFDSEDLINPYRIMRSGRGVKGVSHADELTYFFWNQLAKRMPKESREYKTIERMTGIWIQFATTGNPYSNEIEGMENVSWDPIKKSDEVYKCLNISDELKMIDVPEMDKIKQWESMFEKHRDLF

Row | Compound | flocculation [1] | inhibition of Gly137Asp LcαE7 [2]
1 | OB(O)c1ccc(OCc2ccccc2F)c(Cl)c1 [Compound 5, 3-Chloro-4(2′-fluorobenzyloxy) phenylboronic acid] | Flocculation is observed | –
2 | OB(O)c1cc(Br)cc(N2CCCC2)c1 [Compound 3] | – | poor inhibitor of Gly137Asp LcαE7
